Laboratory results reported in US9353072B2, “Antimicrobial substituted thiazoles and methods of use” (Purdue Research Foundation, priority 2012, dated 2016).
≈ marks a conversion by molar mass, not a printed value. Entries after “also recorded” stand apart in the source; their conditions may differ.

Key:
MRSA NRS384 (USA300) = assay: MIC/MBC broth microdilution, NRS384 (USA300); type: cell-based; details: Staphylococcus aureus; Table 2; MRSA USA300; read-out: Minimum Inhibitory Concentration
Procedure, shortened: (§1)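 Using the CLSI broth microdilution procedure, minimum inhibitory concentrations were determined against the MRSA isolates, each in triplicate.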

[1] = test system: murine macrophage cells (J774.A1); assay: In vitro cytotoxicity analysis, MTS assay; type: cell-based; details: 16 μM, 24 hours
Experimental: In vitro cytotoxicity analysis: Compounds were assayed at concentrations of 2 μM, 4 μM, 8 μM, and 16 μM against a macrophage cell line (J774.A1) to determine the potential toxic effect in vitro. Murine macrophage cells were cultured in Dulbeco's Modified Eagle Medium (Sigma-Aldrich, St. Louis, Mo., USA) with 10% Fetal Bovine Serum (USA Scientific, Inc.) at 37° C. with 5% CO2. Controls received DMSO alone at a concentration equal to that in drug-treated cell samples. The cells were incubated with the compounds in a 96-Well Plate at 37° C. and 5.0% CO2 for 24 hours prior to addition of the assay reagent MTS 3-(4,5-dimethylthiazol-2-yl)-5-(3-carboxymethoxyphenyl)-2-(4-sulfophenyl)-2H-tetrazolium) (Promega, Madison, Wis., USA). The reagent measures the succinate dehydrogenase mitochondrial activity as an indicator of cell viability and proliferation. Corrected absorbance readings (actual absorbance readings for each treatment subtracted from background absorbance) were taken using a kinetic ELISA microplate reader (Molecular Devices, Sunnyvale, Calif., USA). The quantity of viable cells after treatment with each compound was expressed as a percentage of the control, DMSO.

[2] = test system: MRSA ATCC 700699 (NRS1, VISA); assay: MIC/MBC broth microdilution, NRS1 (ATCC 700699); type: cell-based; details: Staphylococcus aureus; Table 2; MRSA ATCC 700699; read-out: Minimum Inhibitory Concentration
Procedure, shortened: as §1

VISA LIM 3 (NRS37) = assay: MIC/MBC broth microdilution, NRS37 (VISA LIM 3); type: cell-based; details: Staphylococcus aureus; Table 2; VISA LIM 3; read-out: Minimum Inhibitory Concentration
Procedure, shortened: as §1

NRS107 = assay: MIC/MBC broth microdilution, NRS107; type: cell-based; details: Staphylococcus aureus, Table 2, read-out: Minimum Inhibitory Concentration
Procedure, shortened: as §1

MRSA USA700 = assay: MIC broth microdilution, MRSA USA700; type: cell-based; details: Staphylococcus aureus, Table 2, read-out: Minimum Inhibitory Concentration
Experimental: (§2) Determination of minimum inhibitory concentration (MIC). The MICs of the lead thiazole compound (compound 1a) and nine derivatives tested against all 18 MRSA strains were determined, in triplicate samples, using the broth microdilution method in accordance with the recommendations contained in the CLSI guidelines.

MRSA USA100 = assay: MIC broth microdilution, MRSA USA100; type: cell-based; details: Staphylococcus aureus; Table 2; MRSA USA100; read-out: Minimum Inhibitory Concentration
Experimental: as §2

MRSA USA200 = assay: MIC broth microdilution, MRSA USA200; type: cell-based; details: Staphylococcus aureus; Table 2; MRSA USA200; read-out: Minimum Inhibitory Concentration
Experimental: as §2

MRSA USA1000 = assay: MIC broth microdilution, MRSA USA1000; type: cell-based; details: Staphylococcus aureus, Table 2, read-out: Minimum Inhibitory Concentration
Experimental: as §2

MRSA USA500 (NRS385) = assay: MIC/MBC broth microdilution, NRS385 (USA500); type: cell-based; details: Staphylococcus aureus; Table 2; MRSA USA500; read-out: Minimum Inhibitory Concentration
Procedure, shortened: as §1

VRSA (VRS10) = assay: MIC/MBC broth microdilution, VRSA (VRS10); type: cell-based, Staphylococcus aureus; details: Staphylococcus aureus; Table 2; VRSA; read-out: Minimum Inhibitory Concentration
Experimental: as §2

MRSA USA400 (NRS123) = assay: MIC/MBC broth microdilution, NRS123 (USA400); type: cell-based; details: Staphylococcus aureus; Table 2; MRSA USA400; read-out: Minimum Inhibitory Concentration
Procedure, shortened: as §1

[3] = test system: 18 different strains of MRSA and VRSA; assay: MIC broth microdilution, panel of 18 MRSA and VRSA strains (summary statements); type: cell-based, Staphylococcus aureus; details: relative to lead compound 1a; number of strains as stated in the sentence
Experimental: as §2

MRSA USA1100 = assay: MIC broth microdilution, MRSA USA1100; type: cell-based; details: Staphylococcus aureus, Table 2, read-out: Minimum Inhibitory Concentration
Experimental: as §2

NRS194 = assay: MIC/MBC broth microdilution, NRS194; type: cell-based; details: Staphylococcus aureus, Table 2, read-out: Minimum Inhibitory Concentration
Procedure, shortened: as §1

NRS108 = assay: MIC broth microdilution, NRS108; type: cell-based; details: Staphylococcus aureus, Table 2, read-out: Minimum Inhibitory Concentration
Experimental: as §2

| Compound | MIC (MRSA NRS384 (USA300)) [µg/mL] | toxicity toward murine macrophage cells [1] | MIC [2] [µg/mL] | MIC (VISA LIM 3 (NRS37)) [µg/mL] | MIC (NRS107) [µg/mL] | MIC (MRSA USA700) [µg/mL] | MIC (MRSA USA100) [µg/mL] | MIC (MRSA USA200) [µg/mL] | MIC (MRSA USA1000) [µg/mL] | MIC (MRSA USA500 (NRS385)) [µg/mL] | MIC (VRSA (VRS10)) [µg/mL] | MIC (MRSA USA400 (NRS123)) [µg/mL] | improvement in the MIC value relative to the lead compound [3] | MIC (MRSA USA1100) [µg/mL] | MIC (NRS194) [µg/mL] | MIC (NRS108) [µg/mL] |
| --- | --- | --- | --- | --- | --- | --- | --- | --- | --- | --- | --- | --- | --- | --- | --- | --- |
| CCCCCCCc1ccc(-c2nc(C)c(/C(C)=N/NC(=N)N)s2)cc1 [Compound 1e] | 3 (≈ 8.07 µM) | exhibited toxicity; also recorded: toxic | 0.7 (≈ 1.88 µM) | 0.7 (≈ 1.88 µM) | 0.7 (≈ 1.88 µM) | 3 (≈ 8.07 µM) | 1.5 (≈ 4.04 µM) | 1.5 (≈ 4.04 µM) | 3 (≈ 8.07 µM) | 3 (≈ 8.07 µM) | 3 (≈ 8.07 µM) | – | – | – | – | – |
| C/C(=N\NC(=N)N)c1sc(-c2ccc(-c3ccccc3)cc2)nc1C [Compound 12, 2-{1-[2-([1,1′-Biphenyl]-4-yl)-4-methylthiazol-5-yl]ethylidene}hydrazinecarboximid-amide] | 1.2 (≈ 3.43 µM) | none were observed to be toxic | 0.6 (≈ 1.72 µM) | – | – | 0.6 (≈ 1.72 µM) | 2.4 (≈ 6.87 µM) | – | – | 1.2 (≈ 3.43 µM) | 1.2 (≈ 3.43 µM) | 0.6 (≈ 1.72 µM) | two- to four-fold improvement | 0.6 (≈ 1.72 µM) | 1.2 (≈ 3.43 µM) | 2.4 (≈ 6.87 µM) |
